{
  "source": "patent US11814371B2",
  "about": "“Heterocyclic compound” (MEDSHINE DISCOVERY INC., priority 2020, dated 2023)",
  "key": {"[1]": {"molecular_target": "T1, recombinant human plasma kallikrein (Human PKal) (Homo sapiens, UniProt P03952)", "T1 construct": "Gly20-Ala638 derived from NS0- with a 60-His appendage at the C-terminus; His tag ('60-His' [sic]) (C); purchased R&D Systems 2497-SE; host or cells: mouse myeloma cell line NS0", "T1 sequence (P03952 20-638)": "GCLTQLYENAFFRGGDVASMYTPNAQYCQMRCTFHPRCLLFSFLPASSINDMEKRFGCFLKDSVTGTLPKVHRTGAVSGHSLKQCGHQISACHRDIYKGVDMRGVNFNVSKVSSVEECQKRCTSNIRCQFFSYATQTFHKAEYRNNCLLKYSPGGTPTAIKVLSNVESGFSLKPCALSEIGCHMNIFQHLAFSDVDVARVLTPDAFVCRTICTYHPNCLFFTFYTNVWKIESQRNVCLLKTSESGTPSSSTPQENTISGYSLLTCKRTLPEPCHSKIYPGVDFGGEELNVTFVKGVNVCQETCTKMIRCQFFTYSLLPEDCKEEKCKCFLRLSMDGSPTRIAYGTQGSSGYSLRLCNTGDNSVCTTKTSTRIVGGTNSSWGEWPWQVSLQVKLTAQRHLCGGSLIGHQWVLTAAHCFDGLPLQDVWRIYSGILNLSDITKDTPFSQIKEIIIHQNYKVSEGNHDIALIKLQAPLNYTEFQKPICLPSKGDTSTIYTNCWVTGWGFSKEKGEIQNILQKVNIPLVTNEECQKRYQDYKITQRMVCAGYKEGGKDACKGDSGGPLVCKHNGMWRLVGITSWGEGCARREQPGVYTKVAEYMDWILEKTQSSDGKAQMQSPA", "experiment": "Inhibitory effect of test compounds on plasma kallikrein (PKal), fluorogenic substrate Z-FR-AMC", "format": "biochemical", "conditions": "10 µM Z-FR-AMC, 10 min pre-incubation", "protocol": "1. PKal reaction buffer: 25 mM Tris-HCl (trometamol-HCl), pH 8.0, 100 mM NaCl, […], 0.01 % Brij35 (polyoxyethylene lauryl ether), and 1 % DMSO (final concentration).\n2. Enzyme: PKal (R&D Systems Cat# 2497-SE), recombinant human plasma kallikrein expressed in a mouse myeloma cell line, Gly20-Ala638 derived from NS0- with a 60-His appendage at the C-terminus, MW=70 kDa. Activation of the enzyme: (1) rhPKal was diluted to 200 µg/mL activation buffer (100 mM Tris, 10 mM CaCl2, 150 mM NaCl, pH 7.5 (TCN)); (2) thermolysin was diluted to 20 µg/mL activation buffer; (3) rhPKal (200 µg/mL) and thermolysin (20 µg/mL) were mixed in equal volumes; (4) the mixture was incubated at 37° C. for 30 min; (5) then the reactions was stopped with 50 µM EDTA (ethylenediaminetetraacetic acid).\n3. Substrate (Enzo Cat# P-139): 10 µM Z-FR-AMC (AMC: 7-amino-4-methylcoumarin).\n4. Detection: EnVision (PE), Ex/Em 355/460 nm.\n5. Reaction process: (1) The specified enzymes and substrates were prepared in freshly prepared activation buffer; (2) the enzyme solution was injected into the reaction hole; (3) the DMSO solution of the test compound was injected into the reaction mixture, and controlled within the nanoliter range using acoustic technology (Echo 550, LabCyte Inc. Sunnyvale, CA); (4) after 10 min of pre-incubation, the substrate solution was injected into the reaction hole to start the reaction; (5) the activity of the enzyme could be indicated by the increase of the fluorescence signal of the fluorescent labeled peptide substrate, which was monitored every 5 min and lasted for 120 min at room temperature; (6) data analysis: the slope* (fluorescence signal/time) of the straight line was measured, then the slope could be calculated by excel and the curve could be fitted by Prism software."}, "[2]": {"experiment": "Pharmacokinetic test in rats after intravenous and intragastric administration (plasma, LC-MS/MS)", "format": "in vivo", "conditions": "male, SD, rat; for bioavailability: read-out: Bioavailability F; for AUC(0-inf): read-out: Curve area (o-inf) AUC0-inf; for AUC(0-t): read-out: Curve area (o-t) AUC0-last; for half-life: read-out: Half-life T½ (converted); for Tmax: read-out: Peak time Tmax; for Cmax: read-out: Plasma drug concentration Cmax; for Vd: read-out: Apparent volume of distribution Vdss; for clearance: read-out: Clearance rate Cl", "protocol": "Male SD rats were used as test animals, and LC-MS/MS method was used to determine the drug concentrations in plasma of rats at different times after intravenous and intragastric administration of test compounds. The pharmacokinetic behaviors of the compounds in rats were studied and the pharmacokinetic characteristics were evaluated.\n2.2 Test animals: 28 healthy adult male SD rats were divided into 14 groups with 2 rats in each group. Animals were purchased from Beijing Vital River Laboratory Animal Technology Co., Ltd.\n(§1) An appropriate amount of sample was weighed, and an appropriate amount of DMSO, polyoxyethylene castor oil and sterile water for injection were added in sequence according to the volume ratio of 10:10:80, then the mixture was stirred and sonicated to reach a clear state of 0.5 mg/mL for intravenous administration.\nas §1, with “clear or suspension” for “clear”, “0.4” for “0.5”, “intragastric” for “intravenous”\nas §1, with “3” for “0.5”\n2.4 Administration: 28 male SD rats were divided into 14 groups, after fasting for one night, the intravenous administration group was administered with an administration volume of 2 mL/kg and a dose of 1 mg/kg; the intragastric administration group 1 was administered with an administration volume of 5 mL/kg and a dose of 2 mg/kg. The intragastric administration group 2 was administered with an administration volume of 10 mL/kg and a dose of 30 mg/kg.\nAfter the compound was administered intravenously to male SD rats, 40 µL of blood was collected at 0.0833, 0.25, 0.5, 1, 2, 4, 8 and 24 hours, respectively, and placed in tubes containing 2 µL of EDTA-K2. After the compound was administered in the intragastric administration group, 40 µL of blood was collected at 0.25, 0.5, 1, 2, 4, 6, 10 and 24 hours, respectively, and placed in tubes containing 2 µL of EDTA-K2. The tubes were centrifuged at 4000 rpm for 15 minutes to separate the plasma, and stored at -60° C. Animals were allowed to eat 2 hours after administration.\nLC-MS/MS method was used to determine the content of the test compounds in the plasma of rats after intravenous and intragastric administration. The linear range of the method was 2.00 - 6000 nmol/L; plasma samples were treated with acetonitrile to precipitate protein, and then analyzed."}, "[3]": {"conditions": "po, intragastric administration (group 1), nominal 2 mg/kg (actual dose in c2)"}, "[4]": {"conditions": "intravenous administration, nominal 1 mg/kg (actual dose in c2)"}, "[5]": {"conditions": "po, intragastric administration (group 2), nominal 30 mg/kg (actual dose in c2)"}},
  "note": "Like-named read-outs stand apart in the source and are kept apart here.",
  "data": [
    {"smiles": "COc1ccc(F)c(CNC(=O)c2cn(Cc3ccc(Cn4cc(F)ccc4=O)cc3)nc2C2COC2)c1F", "note": "[Compound 1]", "values": [
      {"measurement": "IC50", "setting": "[1]", "result": 0.139, "unit": "nM"},
      {"measurement": "bioavailability", "setting": "[2]; [3]", "result": 15.3, "unit": "%"},
      {"measurement": "AUC(0-inf)", "setting": "[2]; [3]", "result": 1.34, "unit": "µM·h"},
      {"measurement": "AUC(0-t)", "setting": "[2]; [3]", "result": 1.33, "unit": "µM·h"},
      {"measurement": "half-life", "setting": "[2]; [3]", "result": 93.6, "unit": "min"},
      {"measurement": "Tmax", "setting": "[2]; [3]", "result": 30, "unit": "min"},
      {"measurement": "Cmax", "setting": "[2]; [3]", "result": 1140, "unit": "nM"},
      {"measurement": "Vd", "setting": "[2]; [4]", "result": 0.202, "unit": "L/kg"},
      {"measurement": "clearance", "setting": "[2]; [4]", "result": 7.09, "unit": "mL/min/kg"},
      {"measurement": "AUC(0-inf)", "setting": "[2]; [4]", "result": 4.38, "unit": "µM·h"},
      {"measurement": "AUC(0-t)", "setting": "[2]; [4]", "result": 4.35, "unit": "µM·h"},
      {"measurement": "half-life", "setting": "[2]; [4]", "result": 37.4, "unit": "min"}
    ]},
    {"smiles": "COc1ccc(F)c(CNC(=O)c2cn(Cc3ccc(Cn4cc(F)ccc4=O)c(F)c3)nc2C2COC2)c1F", "note": "[Compound 8]", "values": [
      {"measurement": "IC50", "setting": "[1]", "result": 0.465, "unit": "nM"},
      {"measurement": "bioavailability", "setting": "[2]; [3]", "result": 11.2, "unit": "%"},
      {"measurement": "AUC(0-inf)", "setting": "[2]; [3]", "result": 0.591, "unit": "µM·h"},
      {"measurement": "AUC(0-t)", "setting": "[2]; [3]", "result": 0.584, "unit": "µM·h"},
      {"measurement": "half-life", "setting": "[2]; [3]", "result": 94.2, "unit": "min"},
      {"measurement": "Tmax", "setting": "[2]; [3]", "result": 15, "unit": "min"},
      {"measurement": "Cmax", "setting": "[2]; [3]", "result": 680, "unit": "nM"},
      {"measurement": "bioavailability", "setting": "[2]; [5]", "result": 54, "unit": "%"},
      {"measurement": "AUC(0-inf)", "setting": "[2]; [5]", "result": 42.5, "unit": "µM·h"},
      {"measurement": "AUC(0-t)", "setting": "[2]; [5]", "result": 42.4, "unit": "µM·h"},
      {"measurement": "half-life", "setting": "[2]; [5]", "result": 115, "unit": "min"},
      {"measurement": "Tmax", "setting": "[2]; [5]", "result": 15, "unit": "min"},
      {"measurement": "Cmax", "setting": "[2]; [5]", "result": 18600, "unit": "nM"},
      {"measurement": "Vd", "setting": "[2]; [4]", "result": 0.188, "unit": "L/kg"},
      {"measurement": "clearance", "setting": "[2]; [4]", "result": 12.2, "unit": "mL/min/kg"},
      {"measurement": "AUC(0-inf)", "setting": "[2]; [4]", "result": 2.62, "unit": "µM·h"},
      {"measurement": "AUC(0-t)", "setting": "[2]; [4]", "result": 2.62, "unit": "µM·h"},
      {"measurement": "half-life", "setting": "[2]; [4]", "result": 23.5, "unit": "min"}
    ]}
  ]
}
